Laboratory results reported in patent US7737182B2, “Pharmaceuticals for xerosis” (Taisho Pharmaceutical Co., Ltd., priority 2001, dated 2010).

Columns and labels:
prostaglandin D receptor = biological target: T1, prostaglandin D receptor (Homo sapiens, UniProt Q13258); experiment: Antagonism by BW A868C of the suppression of ADP-induced human platelet aggregation; type: cell-based; details: human PRP, ADP 3 μmol/L
T1 construct: separate the supernatant (PRP, or platelet-rich plasma); endogenous in cells; host or cells: human platelets (platelet-rich plasma from healthy male donors)
T1 sequence (Q13258 1-359): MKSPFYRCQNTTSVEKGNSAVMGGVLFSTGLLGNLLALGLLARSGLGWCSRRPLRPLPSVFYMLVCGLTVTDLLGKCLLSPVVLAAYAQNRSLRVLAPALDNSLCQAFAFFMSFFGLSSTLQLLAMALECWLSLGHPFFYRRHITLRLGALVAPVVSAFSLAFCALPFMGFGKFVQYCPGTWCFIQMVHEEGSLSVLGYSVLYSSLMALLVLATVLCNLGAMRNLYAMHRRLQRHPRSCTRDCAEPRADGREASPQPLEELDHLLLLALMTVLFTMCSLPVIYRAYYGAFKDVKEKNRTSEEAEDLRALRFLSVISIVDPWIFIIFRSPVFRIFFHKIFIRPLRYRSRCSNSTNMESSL
Procedure: The prostaglandin D receptor selective antagonist used in the test was ((+/−)-3-benzyl-5-(6-carboxyhexyl)-1-(2-cyclohexyl-2-hydroxyethylamino)-hydantoin) (hereunder designated BW A868C) (Sigma-Aldrich Japan K.K.)
BW A868C was diluted with ethanol to final concentrations of 0.03 μmol/L, 0.1 μmol/L, 0.3 μmol/L, 1 μmol/L, 3 μmol/L and 10 μmol/L.
Compound No. 7 and PGD2 were diluted with ethanol to 287 nmol/L and 300 nmol/L, respectively, for subsequent use.
Blood was taken from the cubital veins of human healthy males and sampled into a tube containing 3.13% sodium citrate. The blood sample was centrifuged at 1,000 rpm for 10 minutes at 20° C. to separate the supernatant (PRP, or platelet-rich plasma) and the residue was further centrifuged at 3,000 rpm for 10 minutes at 20° C. to separate the supernatant (PPP, or platelet-poor plasma). The platelet count of PRP was appropriately diluted with PPP to 30×10^4 platelets/μL for subsequent use.
Platelet aggregation was measured with a platelet aggregation measuring instrument (PAM-8C; MC MEDICAL Co., LTD.) by the Born method (Nature, vol. 194, p. 927, 1962). A portion (273 μL) of PRP (for the BW A868C groups, 1 μL of BW A868C was added at varying concentrations) was preincubated at 37° C. for 3 minutes with stirring at 1,000 rpm. After the preincubation, 1 μL of ethanol or a test substance (compound No. 7: final concentration at 95.7 nmol/L; PGD2: final concentration at 1000 nmol/L) was added and the mixture was incubated at 37° C. for 3 minutes with stirring at 1000 rpm. After the incubation, 25 μL of ADP (final concentration at 3 μmol/L) was added to induce platelet aggregation and a maximum percent aggregation for 5 minutes was measured.

[1] = test system: NC/Nga mice manifesting atopic dermatitis; experiment: Spontaneous itch-evoked scratching behavior of NC mice (Test Example 1); type: in vivo; details: for Inhibition rate (%) (percent itch suppression): 0.2 ml/mouse on dorsal skin, 24-hr scratching counts before vs after; for Efficacy (significance, paired t-test): scratching counts before vs after application
Procedure: About 20-week old NC/Nga mice each weighing about 30 g and manifesting atopic dermatitis were purchased from SLC and subjected to the following experiment. A magnet was buried in both hind paws of each mouse and by detecting its magnetism, the movement of the paws was measured with an itch measuring system (product of Neuroscience; when the mouse makes an action, the magnets move accordingly and a current flows through the coil; the moving magnets cause a change in the current, which is detected, measured and analyzed). Among the scratching actions, those lasting 1.5 seconds or longer were considered itch-evoked and their number was counted continuously. […] The subsequent 24-hr itch-evoked scratching behavior was measured and the number of itch-evoked scratchings after drug administration was compared with the initial count. The experimental data was processed to calculate the percent itch suppression on the basis of the total 24-hr itch-evoked scratching counts before and after drug application. For significance testing, the itch-evoked scratching counts that were obtained before and after drug application from individual animals in each group treated with a specific concentration of drug were processed by a paired t-test. Percent itch suppression (%)=(itch-evoked scratching count before drug application−itch-evoked scratching count after drug application)×100/itch-evoked scratching count before drug application (Results)

BALB/c male mice [2] = experiment: Mouse skin's barrier function, treatment test, TEWL (Test Example 5); type: in vivo; details: barrier destroyed with acetone/diethyl ether; 0.01% in ethanol, 100 μL, once a day for 2 days
Procedure: Six-week-old BALB/c male mice in groups of eight were shaven in a rostral dorsolateral area of 4 cm^2 (2 cm×2 cm) with electric clippers and the shaven area was covered for 60 seconds with an absorbent cotton (2 cm×2 cm) impregnated with a 1:1 liquid mixture of acetone and diethyl ether. This treatment for destroying the skin's barrier function was performed for 3 consecutive days on once-a-day basis. Starting on the day next to completion of the treatment for barrier destruction at day 3, a solvent (ethanol, 100 μL) or a drug dissolved in the solvent (compound No. 7, PGD2, PGF2α, or PGE1, all being at 0.01% in an amount of 100 μL) was applied to the barrier destroyed site for 2 days on once-a-day basis. On the day next to the second application of the solvent or drug, the transepidermal water loss (TEWL) at the same site was measured with Tewameter (TM210 of Courage & Khazawa, Germany) to evaluate the drug's action.

BALB/c male mice [3] = experiment: Mouse skin's barrier function, preventive test, TEWL (Test Example 6); type: in vivo; details: cohabitation with dermatitic NC/Nga mice; 0.01% in ethanol, 100 μL, once a day for 7 days
Procedure: Six-week-old BALB/c male mice in groups of six were shaven in a rostral dorsolateral area of 4 cm^2 (2 cm×2 cm) with electric clippers and kept in the same cage as NC/Nga mice that had developed dermatitis. From the day next to the start of cohabitation, a solvent (ethanol, 100 μL) or a drug dissolved in the solvent (compound No. 7, PGD2, PGF2α, or PGE1, all being at 0.01% in an amount of 100 μL) was applied to the shaven site for 7 days on once-a-day basis.
On the day next to the seventh application of the solvent or drug, the transepidermal water loss (TEWL) at the same site was measured with Tewameter (TM210 of Courage & Khazawa, Germany) to evaluate the drug's action, with the solvent-applied group being used as the control group.

[4] = test system: NC mice induced to manifest dermatitis; experiment: Dermatitis score in dermatitis manifesting NC mouse models (Test Example 2); type: in vivo; details: 0.1% in 100% ethanol, 200 μl on dorsal back, seven times a week for 4 weeks
Procedure: By suitably modifying a method known to the skilled artisan (Jpn. J. Pharmacol. 76, 175-183 (1998) Jun Hiroi, et al. Effects of Tacrolimus Hydrate (FK-506) Ointment on Spontaneous Dermatitis in NC/Nga Mice), the following test was conducted in order to confirm the antipruritic effect of compounds of the invention.
Animals: Four-week old SPF NC mice (male) were purchased from Japan SLC; right after their arrival, the SPF NC mice were kept together with dermatitis manifesting male NC mice (older than 20 weeks) for 2 weeks under the following conditions so as to induce itch-evoked scratching behavior. […]
Drug administration: To the dorsal backs of the 20-wk NC mice that were induced to manifest dermatitis as the result of cohabitation with the spontaneous dermatitis manifesting NC mice, 100% ethanol, compound No. 7 (0.01%) dissolved in 100% ethanol or tacrolimus (0.1%) dissolved in 100% ethanol was applied from an Eppendorf pipette in 200-μl doses seven times a week for a period of 4 weeks. […] Dermatitis score: Dermatitic symptoms were observed and measured once a week. […]

[5] = concentration 0.00001% in 100% ethanol

In the case of `O=C(O)CCCCCCC1C(=O)N(Cc2ccccc2)C(=O)N1NCC(O)C1CCCCC1` (racemic) [BW A868C, ((+/−)-3-benzyl-5-(6-carboxyhexyl)-1-(2-cyclohexyl-2-hydroxyethylamino)-hydantoin)], the “concentration of BW A868C with significant antagonism of the platelet aggregation suppressing action of PGD2” value (prostaglandin D receptor; PGD2 at 1000 nmol/L) was at least 0.3 µmol/L and the “concentration of BW A868C with significant antagonism of the platelet aggregation suppressing action of compound No. 7” value (prostaglandin D receptor; compound No. 7 at 95.7 nmol/L) was at least 0.1 µmol/L.

`COC(=O)CSCCCC[C@@H]1[C@@H](C#C[C@@H](O)C2CCCCC2)[C@H](O)C[C@H]1Cl` [Compound No. 6] was tested, and the “Inhibition rate (%) (percent itch suppression)” value ([1]; concentration 0.0001% in 100% ethanol) was 32.26% and the “Efficacy (significance, paired t-test)” value ([1]; concentration 0.0001%) was “* (*: P < 0.05)”.

For `O=C(O)C#CCCCC[C@@H]1[C@@H](C#C[C@@H](O)C2CCCCC2)[C@H](O)C[C@H]1Cl` [Compound No. 15], the “Inhibition rate (%) (percent itch suppression)” value ([1]; concentration 0.000001% in 100% ethanol) was 34.61% and the “Efficacy (significance, paired t-test)” value ([1]; concentration 0.000001%) was “* (*: P < 0.05)”.

`O=C(O)CSCCSC[C@@H]1[C@@H](C#C[C@@H](O)C2CCCCC2)[C@H](O)C[C@H]1Cl` [Compound No. 25] was tested, and the “Inhibition rate (%) (percent itch suppression)” value [1, 5] was 21.51% and the “Efficacy (significance, paired t-test)” value ([1]; concentration 0.00001%) was “* (*: P < 0.05)”.

For `O=C(O)CCCCSC[C@@H]1[C@@H](C#C[C@@H](O)C2CCCCC2)[C@H](O)C[C@H]1Cl` [Compound No. 32], the “Inhibition rate (%) (percent itch suppression)” value [1, 5] was 41.76% and the “Efficacy (significance, paired t-test)” value ([1]; concentration 0.00001%) was “** (**: P < 0.01)”.

In the case of `CCCCC[C@H](O)/C=C/[C@H]1[C@H](O)CC(=O)[C@@H]1CCCCCCC(=O)O` [PGE1], the “transepidermal water loss (TEWL) compared to the solvent-applied control group” value (BALB/c male mice [2]) was “no significant difference from the control group” and the “transepidermal water loss (TEWL) compared to the control group” value (BALB/c male mice [3]) was “significant decrease in TEWL”.

`CCCCC[C@H](O)/C=C/[C@@H]1[C@@H](C/C=C\CCCC(=O)O)[C@@H](O)C[C@H]1O` [PGF2α] was tested, and the “transepidermal water loss (TEWL) compared to the solvent-applied control group” value (BALB/c male mice [2]) was “no significant difference from the control group” and the “transepidermal water loss (TEWL) compared to the control group” value (BALB/c male mice [3]) was “no significant difference from the control group”.

In the case of `C=CC[C@@H]1/C=C(\C)C[C@H](C)C[C@H](OC)[C@H]2O[C@@](O)(C(=O)C(=O)N3CCCC[C@H]3C(=O)O[C@H](/C(C)=C/[C@@H]3CC[C@@H](O)[C@H](OC)C3)[C@H](C)[C@@H](O)CC1=O)[C@H](C)C[C@@H]2OC` [tacrolimus, reference compound], the “dermatitis score suppressing action compared to the vehicle group” value [4] was “significant dermatitis score suppressing action”.
